Usually melting point stands for the temperature of the solid-liquid transition.

Where only a bound is given, the exact number is not on record here.

In turn, `Cc1c(Br)cc(NC(=O)c2cccc(CSc3cnccn3)c2)cc1Br` yielded a melting point of 119 to 127 °C.
Next, `CC(C)NC(=O)Nc1ccc([N+](=O)[O-])cc1O`: 160 to 161 °C; `Cc1nn(-c2ccc(C#N)c(Cl)c2)c(C)c1Cc1ccc(C(=O)N2CC(O)C2)cc1`: 115 to 117 °C.
For the compound `O=C(O)c1cnn2c(C(F)F)cc(-c3ccc(C(F)(F)F)c(F)c3)nc12`, the melting point is 233 °C.
Next, `OCC#Cc1ccccn1`: 78 to 80 °C; `CCN(CC)C(=O)c1cc(-c2ccc(OC)cc2)c2ccccc2c1OC`: 129 to 130 °C.
The figure for `COc1c(CBr)c(OC)c(CBr)c(OC)c1CBr` is 126 °C; for `O=C(NNS(=O)(=O)c1ccccc1)c1ccc(NCc2ccccc2)cc1` it is 214 to 215 °C; for `CCCC(O)C1(CCC)c2ccccc2-c2ccccc21` (stereo not given) it is 83 to 85 °C.
Next, `COc1cc2ncn(CCO)c(=O)c2cc1OC`: 130 °C; `O=c1occ(CSc2ccc(F)cc2)o1`: 57 to 59 °C.
For `Cn1c2ccccc2c2oc(C(N)=O)cc(=O)c21`, the melting point is above 295 °C.
The figure for `CC1CNc2c([N+](=O)[O-])cnn2C1` (stereo not given) is 190 to 192 °C; for `CCCCc1oc2ccccc2c1Cc1ccc(O)cc1` it is 67 to 70 °C.
In turn, `CCN(CC)C(=O)c1nc(-c2cccc3ccccc23)no1` had a melting point of 102 °C.
`O=C(O)CCCc1ccccc1CC1C(=O)CC(=O)C1=O` (stereo not given) returned a melting point of 123 °C.
The figure for `CCOC(=O)COc1ccc(SCc2ccnc3[nH]c(-c4ccc(C(F)(F)F)cc4)nc23)cc1C` is 239 to 241 °C; for `OCc1cnc2c(Cl)cccc2c1O` it is above 300 °C; for `CN1CCNC1=C[N+](=O)[O-]` it is 142 to 144 °C.
With `N=C(NN)c1ccccc1C(=N)NN`, the melting point was in the range of 251 to 253 °C.
The figure for `CCn1c(=O)c2[nH]c(/C=C/c3ccc(OC)c(C)c3)nc2n(CC)c1=O` is above 270 °C; for `COc1ccc2c(c1OCc1ccccc1)CC(C(=O)O)N(C(=O)C(c1ccc(Cl)cc1)c1ccc(Cl)cc1)C2` (racemic) it is 186 to 188 °C.
Next, `Cc1cc(C)nc(-n2cnc(N)n2)n1`: 235 to 238 °C; `CC(=O)NC1CCn2c1nc1cc(NC(=O)c3cc4cc(F)ccc4n3Cc3cccc(F)c3)cnc12` (stereo not given): 282 to 283 °C.
The figure for `Cn1cc(OS(C)(=O)=O)c(=O)c2ccc(C(F)(F)F)cc21` is 218 °C; for `O=C(N[C@@H](Cc1ccc(OCc2ccccc2)cc1)C(=O)O)c1cn2cc(/C=C/c3ccc(Cl)cc3)ccc2n1` it is 267 to 270 °C; for `N#Cc1cnc2c(c1)N(Cc1cc(Cl)ccc1Cl)CCN2` it is 221 to 222 °C.
In turn, `CN(C)c1c(CC(=O)O)cccc1C(=O)c1ccccc1` showed a melting point of 144 to 146 °C.
The figure for `O=C(Nc1cccc(S(=O)(=O)CCO)c1)c1cnn2c(C(F)F)cc(-c3ccc(C(F)(F)F)cc3)nc12` is 205 °C; for `CCOC(=O)c1cn(C(=O)OCC(C)C)c2c(COC(C)=O)cc(C)cc2c1=O` it is 101 to 103 °C.
The figure for `CSc1ccc(-c2nn(Cc3ccc(F)cc3F)c(=S)cc2-c2ccc(Cl)cc2)cc1` is 176 to 177 °C.
Next, `CN(C)C(=S)SC(C[N+](=O)[O-])c1ccc(Cl)cc1Cl` (stereo not given): 127 to 128 °C; `CCOP(=O)(CNC(C)(c1ccccc1)c1cc(C(C)(C)C)c(O)c(C(C)(C)C)c1)OCC` (stereo not given): 104 to 105 °C; `CCCOC(=Nc1sccc1C#N)OCCC`: 65 to 67 °C.
In turn, `Cc1c(CC(c2ccccc2)c2ccccc2)ncn1C(c1ccccc1)(c1ccccc1)c1ccccc1` had a melting point of 205 to 206 °C.
Next, `Nc1ccn([C@H]2C=C[C@@H](O)CC2)c(=O)n1` (racemic): 224 to 226 °C.
Next, `C=C(C)C(=O)Oc1ccc(N(C)S(C)(=O)=O)cc1`: 126 to 127 °C; `O=C1N(CC2CCCO2)c2ccccc2C12COc1cc(O)ccc12` (stereo not given): 72 to 74 °C.
The figure for `CC(C)Cc1ccc(C(F)C(=O)O)cc1` (stereo not given) is 64 to 66 °C; for `CN(C)c1nc2sc3c(NCCN4CCOCC4)ncnc3c2c2c1CCC(C)(C)C2` it is 173 to 175 °C.
`CCOC(=O)CCC(=O)NCc1ccc([N+](=O)[O-])cc1` showed a melting point of 104 to 106 °C.
Next, `CCOCc1nc2cnc3ccccc3c2n1CCCCC(N)=O`: 157 to 158 °C; `N#Cc1cnc2cc(O)ccc2c1Nc1ccc(Cl)cc1F`: 295 to 305 °C.
Next, `Cc1nc(NC(=O)C(c2ccccc2)c2ccccc2)no1`: 153 °C; `COc1nc(C(F)(F)C(F)(F)F)c(F)c(=O)n1-c1cc(OC(C)C)c(Cl)cc1F`: 69 to 71 °C.
Next, `CC(O)c1nccc(N2CCc3cc(-c4ccsc4)ccc3C2)n1` (stereo not given): 126 to 128 °C; `CC(C)CCCC(C)C1CCC2C3CC=C4CC(Oc5ccc(N)cc5N)CCC4(C)C3CCC12C` (stereo not given): 159 to 163 °C; `CNC1=Nc2ccc(Br)cc2C(c2ccccc2)=NC1`: 234 to 235 °C.
For the compound `O=C1C=C(NC(=O)C(=O)c2cn(Cc3ccc(Cl)cc3)c3cccc(CO)c23)CO1`, the melting point was in the range of 238 to 240 °C.
The figure for `O=C1NC(=O)C(=Cc2ccc(OCCNc3ncccn3)cc2)S1` is 234 °C; for `Cc1cc(SC2=C(O)CC(CCc3ccsc3)(C(C)C)OC2=O)c(C(C)(C)C)cc1CO` (stereo not given) it is 63 to 70 °C.
Next, `CCOc1nc(N)nc(OC(F)(F)F)n1`: 69 to 71 °C; `Oc1cccc(Oc2ccc(Cl)nn2)c1`: 185 to 187 °C.
Next, `COCCc1c[nH]c(=O)[nH]c1=O`: 232 to 234 °C; `Cc1cccc(NC(=O)NC(Cc2ccccc2)C(=O)O)c1` (racemic): 182 °C.
`N#Cc1cccnc1N1CCN(CC(=O)Nc2ccc(F)c(C(F)(F)F)c2)CC1` came in with a melting point of 120 to 122 °C.
The compound `CCCOC(=O)Nc1ccc(NCc2cc(Cl)cc(Cl)c2)cc1N` yielded a melting point of 154 to 155 °C.
Next, `CCn1c(Oc2cccc(NC(=O)N(C)C)c2)nnc1[C@@H](C)NS(=O)(=O)c1ccc(Cl)c(Cl)c1`: 158 to 159 °C.
Next, `O=C1C=CC2=CN=C(c3ccco3)N3CCC(=C23)N1`: 278 to 279 °C; `CCn1c(=O)n(CC(C)(C)O)c(=O)c2[nH]cnc21`: 217 to 219 °C.
Compound `CC1Cc2cc(Br)cc(S(N)(=O)=O)c2O1` (stereo not given) displayed a melting point of 167 to 169 °C.
The figure for `N#Cc1c(N)[nH]c2c1COc1ccccc1-2` is 216 to 217 °C; for `CC(C)CCC(=O)CC1c2ccccc2C(=O)N1c1ccc2ccc(Cl)nc2n1` (stereo not given) it is 172 °C; for `N#Cc1cc(C(=O)NNC(=O)c2occ(-c3ccccc3)c2-c2ccccc2)ccc1O` it is 178 to 179 °C.
The figure for `O=C(O)c1ccc(OCCNC(=O)C2Cc3ccccc3N2S(=O)(=O)c2ccc(-c3ccc(F)cc3)cc2)cc1F` (stereo not given) is 109 to 113 °C.

(Values after a melting point compilation (Tetko et al.; mined from patent text by program, amines drawn as free bases though some values may be those of a salt).)
